# From patent publication US20170320837A1, “METHOD FOR TREATING INFLAMMATORY DISORDERS” (Synta Pharmaceuticals Corp., priority 2006, published 2017)
# “Also recorded” adds a separate entry of the source.
# Columns and labels:
# glucocorticoid receptor [1] = assay: Glucocorticoid receptor levels in PBMCs of rats after four days of intravenous dosing, immunoblot; type: in vivo, Sprague-Dawley (SD) rats; conditions: daily intravenously for four days, 17-DMAG 6 mg/kg, Paclitaxel 5 mg/kg, Compound 264 80 mg/kg, Compound 226 50 mg/kg
# Procedure: The test compounds were administered daily intravenously via tail vein for four days. […] All rats were sacrificed at the study day 5. About 1-2 mL of blood samples were collected per animal. The blood samples were then pulled together as a group for PBMC isolation.
# glucocorticoid receptor [2] = assay: Glucocorticoid receptor levels in rat PBMCs, immunoblot; type: cell-based; conditions: rat PBMCs, 0, 1, 5, 25, or 100 nM, 16 hours
# Procedure: (§1) The whole blood samples from healthy human volunteer and male SD rat were collected and the PBMCs were isolated immediately as follows. 5 ml of whole blood was diluted with an equal volume of sterile 1× PBS. The diluted blood was overlayed carefully into a sterile centrifuge tube without disturbing the bottom layer that containing 5 ml of Ficoll-paque plus density gradient solution. The layered blood was centrifuged at 1500×g for 30 minutes at room temperature. The middle thin layer containing PBMCs was carefully removed, transferred to another sterile centrifuge tube, and washed twice with PBS to remove […]. Isolated rat and human PBMCs were cultured in 10% fetal bovine serum/DMEM.
# (§2) The rat and human PBMCs were treated with DMSO (control), Compound 226, Compound 287, or 17-DMAG at concentrations of 0, 1, 5, 25, or 100 nM (in DMSO) for 16 hours. The cells were then collected and rinsed in ice-cold PBS and stored in liquid nitrogen until further analysis.
# (§3) PBMC were prepared in Western lysis buffer (10 mmol/L HEPES, 42 mmol/L KCl, 5 mmol/L MgCl2, 0.1 mmol/L EDTA, 0.1 mmol/L EGTA, 1 mmol/L DTT, 1% Triton X-100, freshly supplemented with 1× protease inhibitor cocktail from Pierce, Rockford, Ill.). Lysate protein concentrations were quantified by bicinchoninic acid assay (Pierce) and normalized. Equal amounts of protein were loaded onto 10% NuPAGE Bis-Tris Gels (Invitrogen) and subsequently transferred onto polyvinylidene difluoride membranes. The membranes were blocked in 5% milk in TBST. Primary antibody of glucocorticod receptor from Santa Cruz Biotechnology, Inc. was added and incubated at room temperature for 1 hour with shaking. The blots were washed extensively in TBST before secondary antibodies were added for overnight incubation at 4° C. with gentle shaking. The blots were again washed extensively and developed with SuperSignal West Femto substrate (Pierce). The immunoblot analysis was performed to measure the level of total GRs by Quantity One software from Bio-Rad.
# glucocorticoid receptor [3] = assay: Glucocorticoid receptor levels in human PBMCs, renal cells and cancer cell lines, immunoblot (Example 115); type: cell-based
# Procedure: Normal human renal proximal tubule epithelial cells and tumor cell lines of MV-4-11, Kasumi-1, and Hela were obtained from Cambrex Bioproducts and American Type Culture Collection, respectively. Cells were cultured with 10% fetal bovine serum/DMEM.
# The whole blood samples from healthy human volunteer were collected and the PBMCs were isolated immediately as described in Example 116. Isolated human PBMCs were cultured in 10% fetal bovine serum/DMEM.
# as §2, with “Human PBMCs, kasumi-1, My-4-11, Hela,” for “The rat”, “renal proximal tubule epithelial cells” for “PBMCs”, “287,” for “287, or”, “0,” for “0, 1,”
# as §3, with “PBMC, renal and tumor cell pellets” for “PBMC”, “0.1. mmol/LEGTA,” for “0.1 mmol/L EGTA,”, “glucocorticoid” for “glucocorticod”, “(Pierce).” for “(Pierce). The immunoblot analysis was performed to measure the level of total GRs by Quantity One software from Bio-Rad.”
# glucocorticoid receptor [4] = assay: Glucocorticoid receptor levels in human PBMCs, immunoblot (Example 114); type: cell-based; conditions: human PBMCs, 0, 1, 5, 25, or 100 nM, 16 hours
# Procedure: as §1, §2, §3
# Her2 = assay: Degradation of Her2 in BT-474 cells, immunoblot (Method 1); type: cell-based, Human; conditions: overnight
# Procedure: Human high-Her2 breast carcinoma BT474 (HTB-20), SK-BR-3 (HTB-30) and MCF-7 breast carcinoma (HTB-22) from American Type Culture Collection, VA, USA were grown in Dulbecco's modified Eagle's medium with 4 mM L-glutamine and antibiotics (100 IU/ml penicillin and 100 ug/ml streptomycine; GibcoBRL). To obtain exponential cell growth, cells were trypsinized, counted and seeded at a cell density of 0.5×10^6 cells/ml regularly, every 3 days. All experiments were performed on day 1 after cell passage. • B. Degradation of Her2 in Cells After Treatment with a Compound of the Invention • 1. Method 1
# BT-474 cells were treated with 0.5 μM, 2 μM, or 5 μM of 17AAG (a positive control) or 0.5 μM, 2 μM, or 5 μM of Compound 108 or Compound 49 overnight in DMEM medium. After treatment, each cytoplasmic sample was prepared from 1×10^6 cells by incubation of cell lysis buffer (#9803, cell Signaling Technology) on ice for 10 minutes. The resulting supernatant used as the cytosol fractions were dissolved with sample buffer for SDS-PAGE and run on a SDS-PAGE gel, blotted onto a nitrocellulose membrane by using semi-dry transfer. Non-specific binding to nitrocellulose was blocked with 5% skim milk in TBS with 0.5% Tween at room temperature for 1 hour, then probed with anti-Her2/ErB2 mAb (rabbit IgG, #2242, Cell Signaling) and anti-Tubulin (T9026, Sigma) as housekeeping control protein. HRP-conjugated goat anti-rabbit IgG (H+L) and HRP-conjugated horse anti-mouse IgG (H+L) were used as secondary Ab (#7074, #7076, Cell Signaling) and LumiGLO reagent, 20× Peroxide (#7003, Cell Signaling) was used for visualization.
# Hsp90 protein = assay: Malachite Green Assay of ATPase activity of Hsp90 protein; type: biochemical
# Procedure: Hsp90 protein was obtained from Stressgen (Cat #SPP-770). Assay buffer: 100 mM Tris-HCl, Ph 7.4, 20 mM KCl, 6 mM MgCl2. […] Malachite green reagent was added to the reaction. […] The plate was read by an ELISA reader with an absorbance at 620 nm.
# GR (human recombinant) = target: T1, GR (human recombinant) (Homo sapiens, UniProt P04150); assay: GR competitive assay, fluorescence polarization with Fluormone GS1; type: binding; conditions: tested up to 10 uM
# T1 construct: purchased Invitrogen P2816
# T1 sequence (P04150 1-777): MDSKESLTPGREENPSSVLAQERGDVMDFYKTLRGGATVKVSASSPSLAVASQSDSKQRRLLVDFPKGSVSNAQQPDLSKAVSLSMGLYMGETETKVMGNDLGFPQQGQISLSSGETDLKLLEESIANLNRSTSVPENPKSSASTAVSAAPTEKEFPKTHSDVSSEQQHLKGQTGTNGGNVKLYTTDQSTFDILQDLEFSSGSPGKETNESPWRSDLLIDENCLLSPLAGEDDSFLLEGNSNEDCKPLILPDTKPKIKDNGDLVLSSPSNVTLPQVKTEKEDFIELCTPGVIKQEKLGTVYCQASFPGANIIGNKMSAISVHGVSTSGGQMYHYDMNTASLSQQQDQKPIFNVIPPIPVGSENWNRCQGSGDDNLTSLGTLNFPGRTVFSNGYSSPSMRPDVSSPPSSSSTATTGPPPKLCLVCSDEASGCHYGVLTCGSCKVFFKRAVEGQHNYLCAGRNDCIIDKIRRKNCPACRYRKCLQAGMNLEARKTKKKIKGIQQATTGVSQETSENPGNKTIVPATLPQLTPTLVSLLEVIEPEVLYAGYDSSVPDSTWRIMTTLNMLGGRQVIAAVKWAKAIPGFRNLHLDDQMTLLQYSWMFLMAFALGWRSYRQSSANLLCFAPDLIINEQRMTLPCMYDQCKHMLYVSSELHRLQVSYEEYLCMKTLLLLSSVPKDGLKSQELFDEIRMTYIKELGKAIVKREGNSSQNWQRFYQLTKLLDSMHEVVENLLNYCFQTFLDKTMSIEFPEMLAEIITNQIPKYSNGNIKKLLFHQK
# Procedure: To determine whether the compounds of the invention bind directly to the glucocorticoid receptor, GR competitive assay was performed using a kit from Invitrogen (Cat #P2816). GR (human recombinant) was added to a fluorescent glucocorticoid (Fluormone™ GS1) ligand with a test compound at various concentrations (a serial dilution of the test compound was done on a 96-well plate) and incubated for 2-4 hours in the dark. […] The shift in polarization value in the presence of a test compound was used to determine relative affinity of test compounds for glucocorticoid receptors. The buffer plus Fluormone™ GS1 and glucocorticoid receptor in the absent of s test compound was used as negative control presenting 0% competition. […] The IC50 was calculated based on the inhibition rate of binding activity of the testing compound.
# glucocorticoid receptors = target: T2, glucocorticoid receptors (Homo sapiens, UniProt P04150); assay: Competitive binding assay with tritium labeled dexamethason in Hela S3 cells (legend of FIG. 3)
# T2 construct: endogenous in cells; host or cells: HeLa S3
# T2 sequence (P04150 1-777): T1 sequence (P04150 1-777)
# [5] = Kasumi-1 AML cancer cells, 0, 5, 25, or 100 nM, 16 hrs
# [6] = MV-4-11 AML cancer cells, 0, 5, 25, or 100 nM, 16 hrs
# [7] = cancer cells as well as normal PBMCs and renal cells
# [8] = human PBMCs, 0, 5, 25, or 100 nM, 16 hrs
# [9] = human renal cells, 0, 5, 25, or 100 nM, 16 hrs
smiles,measurement,setting,value
"CO[C@H]1/C=C\C=C(/C)C(=O)NC2=CC(=O)C(NCCN(C)C)=C(C[C@@H](C)C[C@H](OC)[C@H](O)[C@@H](C)/C=C(\C)[C@@H]1OC(N)=O)C2=O [Compound 17-DMAG, 17-DMAG, reference compound]",expression of glucocorticoid receptor (GR) in isolated PBMC compared with vehicle,glucocorticoid receptor [1],decreased
same,expression of glucocorticoid receptors,glucocorticoid receptor [2],dose dependent decrease; also recorded: decreased the expression of glucocorticoid receptor in a dose dependent manner
same,"suppression of glucocorticoid receptors, cancer cells compared with normal cells",glucocorticoid receptor [3],more pronounced in cancer cell than in normal cells
same,expression of glucocorticoid receptors,"glucocorticoid receptor [3]; HeLa cells, 0, 5, 25, or 100 nM, 16 hrs",dose dependent decrease
same,expression of glucocorticoid receptors,glucocorticoid receptor [3]; [5],dose dependent decrease
same,expression of glucocorticoid receptors,glucocorticoid receptor [3]; [6],dose dependent decrease
same,expression of glucocorticoid receptors,glucocorticoid receptor [3]; [7],suppress the expression of glucocorticoid receptors
same,expression of glucocorticoid receptors,glucocorticoid receptor [3]; [8],dose dependent decrease
same,expression of glucocorticoid receptors,glucocorticoid receptor [3]; [9],dose dependent decrease
same,expression of glucocorticoid receptors,glucocorticoid receptor [4],dose dependent decrease; also recorded: decreased the expression of glucocorticoid receptor in a dose dependent manner
"CCc1cc(-c2nnc(S)n2-c2cccc3ccccc23)c(O)cc1O [Compound 49, 3-(2,4-Dihydroxy-5-ethyl-phenyl)-4-(naphthalen-1-yl)-5-mercapto-triazole]",degradation of Her2,Her2; 0.5 μM,partial degradated
same,degradation of Her2,Her2; 2 μM,complete degradation
same,degradation of Her2,Her2; 5 μM,complete degradation
"Oc1ccc(-c2nnc(S)n2-c2cccc3ccccc23)c(O)c1 [Compound 108, 3-(2,4-Dihydroxy-phenyl)-4-(naphthalen-1-yl)-5-mercapto-triazole]",ATPase activity of Hsp90,Hsp90 protein; 4 μM,significant inhibition
same,ATPase activity of Hsp90,Hsp90 protein; 40 μM,even greater inhibition of ATPase activity of Hsp90 than geldanamycin
same,degradation of Her2,Her2; 0.5 μM,partially degradated
same,degradation of Her2,Her2; 2 μM,partially degradated
same,degradation of Her2,Her2; 5 μM,almost completely degraded
CCCN(C)c1cc(-n2c(S)nnc2-c2cc(C(C)C)c(O)cc2O)ccc1OC [Compound 264],expression of glucocorticoid receptor (GR) in isolated PBMC compared with vehicle,glucocorticoid receptor [1],decreased
same,IC50,GR (human recombinant),> 10 µM
CC(C)c1cc(-c2nnc(O)n2-c2ccc(N(C)CCN(C)C)cc2)c(O)cc1O [Compound 287],expression of glucocorticoid receptors,glucocorticoid receptor [2],dose dependent decrease; also recorded: decreased the expression of glucocorticoid receptor in a dose dependent manner
same,"suppression of glucocorticoid receptors, cancer cells compared with normal cells",glucocorticoid receptor [3],more pronounced in cancer cell than in normal cells
same,expression of glucocorticoid receptors,glucocorticoid receptor [3]; [5],dose dependent decrease
same,expression of glucocorticoid receptors,glucocorticoid receptor [3]; [6],dose dependent decrease
same,expression of glucocorticoid receptors,glucocorticoid receptor [3]; [7],suppress the expression of glucocorticoid receptors
same,expression of glucocorticoid receptors,glucocorticoid receptor [3]; [8],dose dependent decrease
same,expression of glucocorticoid receptors,glucocorticoid receptor [3]; [9],dose dependent decrease
same,expression of glucocorticoid receptors,glucocorticoid receptor [4],dose dependent decrease; also recorded: decreased the expression of glucocorticoid receptor in a dose dependent manner
"CC(=O)O[C@H]1C(=O)[C@@]2(C)[C@H]([C@H](OC(=O)c3ccccc3)[C@]3(O)C[C@H](OC(=O)[C@H](O)[C@@H](NC(=O)c4ccccc4)c4ccccc4)C(C)=C1C3(C)C)[C@]1(OC(C)=O)CO[C@@H]1C[C@@H]2O [Paclitaxel, reference compound]",displacement of tritium labeled dexamethason,glucocorticoid receptors,did not displace the tritium labeled dexamethason
same,expression of glucocorticoid receptor (GR) in isolated PBMC compared with vehicle,glucocorticoid receptor [1],decreased
C[C@@H]1C[C@H]2O[C@@H]2/C=C\C=C\C(=O)Cc2c(Cl)c(O)cc(O)c2C(=O)O1 [radicicol],displacement of tritium labeled dexamethason,glucocorticoid receptors,did not displace the tritium labeled dexamethason
